Earlier results as cited in patent US8518458B2, “Tea-derived compositions and methods of using same for cardiovascular health” (Immune Guard, LLC, priority 2006, dated 2013).

Settings: spontaneously hypertensive rats

SMILES: CCNC(=O)CC[C@H](N)C(=O)O [L-theanine, γ-glutamylethylamide]
- effect on blood pressure: reduces blood pressure
